Results published in patent publication US11130793B2, “GLP-1/GLP-2 dual agonists” (Zealand Pharma A/S, priority 2016, dated 2021).
Read-outs that look alike come from different tables or passages of the source. Square brackets hold non-standard residues; d marks the D form. Peptide text beside a SMILES is read from it. Aib = CC(C)(N)C(=O)O

Legend:
[1] = molecular target: T1, human GLP-1 receptor (Homo sapiens, UniProt P43220); test: GLP-1 receptor potency assay (cAMP AlphaScreen, HEK293 cells stably expressing GLP-1R); assay type: cell-based; details: cAMP response, HEK293 cells expressing human GLP-1R; read-out: EC50 GLP-1
T1 construct: expressed in transfected cells
T1 sequence (P43220 24-463): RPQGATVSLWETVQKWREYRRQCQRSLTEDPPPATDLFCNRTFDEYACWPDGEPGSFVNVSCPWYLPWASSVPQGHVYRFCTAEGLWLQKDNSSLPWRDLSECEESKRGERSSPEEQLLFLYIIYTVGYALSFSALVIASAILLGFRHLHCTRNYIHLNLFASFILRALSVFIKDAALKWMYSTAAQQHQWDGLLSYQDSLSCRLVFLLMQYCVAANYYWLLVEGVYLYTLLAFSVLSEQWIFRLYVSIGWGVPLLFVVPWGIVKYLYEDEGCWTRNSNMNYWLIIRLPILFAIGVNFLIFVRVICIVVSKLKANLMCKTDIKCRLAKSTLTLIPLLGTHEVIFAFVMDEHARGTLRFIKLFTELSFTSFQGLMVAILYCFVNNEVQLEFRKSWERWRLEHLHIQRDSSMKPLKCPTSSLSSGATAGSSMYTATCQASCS
In short: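 cAMP accumulation was quantified by AlphaScreen in G418-selected HEK293 cells stably transfected with human GLP-1R cDNA. Concentration-response data were normalized between vehicle and positive control. EC50 and maximal response came from 4PL curve fitting.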

[2] = molecular target: T2, human GLP-2 receptor (Homo sapiens, UniProt O95838, D470N); test: GLP-2 receptor potency assay (cAMP AlphaScreen, HEK293 cells stably expressing GLP-2R); assay type: cell-based; details: cAMP response, HEK293 cells expressing human GLP-2R
T2 sequence (O95838 1-553 D470N): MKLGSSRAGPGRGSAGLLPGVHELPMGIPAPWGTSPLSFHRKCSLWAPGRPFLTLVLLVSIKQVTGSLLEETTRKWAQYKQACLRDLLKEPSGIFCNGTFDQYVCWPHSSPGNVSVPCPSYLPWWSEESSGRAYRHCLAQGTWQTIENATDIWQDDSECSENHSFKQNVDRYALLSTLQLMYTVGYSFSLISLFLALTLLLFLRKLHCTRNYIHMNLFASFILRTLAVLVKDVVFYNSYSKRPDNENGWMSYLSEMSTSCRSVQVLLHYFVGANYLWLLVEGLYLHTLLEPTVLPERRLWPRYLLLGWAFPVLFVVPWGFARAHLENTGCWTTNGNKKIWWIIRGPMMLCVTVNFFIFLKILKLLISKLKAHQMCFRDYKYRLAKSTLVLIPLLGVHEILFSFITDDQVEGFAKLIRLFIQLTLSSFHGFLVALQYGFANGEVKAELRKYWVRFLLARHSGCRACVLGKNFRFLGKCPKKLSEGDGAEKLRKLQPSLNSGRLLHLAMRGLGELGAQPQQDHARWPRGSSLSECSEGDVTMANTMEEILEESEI
In short: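 EC50 and maximal response were fitted with a 4PL model after normalization to positive control and vehicle. cAMP accumulation was quantified by AlphaScreen in a stable HEK293 clone transfected with human GLP-2 receptor.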

[3] = Solubility assessment by turbidity absorbance at 325 nm; assay type: physicochemical; details: 1 mg/ml peptide
Procedure: A stock solution of the test peptide (2 mg/ml; determined from the weighed amount of peptide) in demineralized water adjusted to pH 2.5 with HCl was prepared, and aliquots were diluted 1:1 in 100 mM acetate buffer (pH 4.0 and pH 5.0), 100 mM histidine buffer (pH 6.0 and pH 7.0) and 100 mM phosphate buffer (pH 6.0, pH 7.0 and pH7.5), respectively, and loaded in a standard flat-bottom, non-sterile 96-well UV Microplate. The absorbance of samples (single samples, n=1) at 280 and 325 nm was measured in an absorbance-based plate reader, which was preheated to ambient temperature (typically 25° C.).

[4] = system: Normal chow-fed C57BL/6J male mice; test: Effect on fasting glucose and intestinal weight in normal mice; assay type: in vivo; details: for Small intestinal wet weight: 250 nmol/kg s.c. once daily for 4 days, sacrificed 24 hours after final dosing; for Fasting blood glucose: day 0, fasted mice, after a single s.c. injection, 250 nmol/kg
Procedure: Normal chow-fed C57BL/6J male mice were used. The mice were kept in standard housing conditions, light-, temperature-, and humidity-controlled room (12:12 h light-dark cycle, with lights on at 06.00-18.00 h; 20-22° C.; 50-80% relative humidity). Each dosing group consisted of 6 animals. Mice were dosed once daily with 250 nmol/kg with the test compounds or vehicle for 4 days via subcutaneous administration.
On day 0 mice were fasted and blood glucose levels measured after a single s.c. injection with peptides. Animals were sacrificed 24 hours after final dosing on day 3, and small intestinal wet weights were measured.

[5] = 100 mM acetate buffer pH 4.0, ambient temperature, read-out: Solubility, Acetate buffer pH 4
[6] = 100 mM acetate buffer pH 5.0, ambient temperature, read-out: Solubility, Acetate buffer pH 5
[7] = 100 mM histidine buffer pH 6.0, ambient temperature, read-out: Solubility, Histidine buffer pH 6
[8] = 100 mM histidine buffer pH 7.0, ambient temperature, read-out: Solubility, Histidine buffer pH 7
[9] = 100 mM phosphate buffer pH 6.0, ambient temperature, read-out: Solubility, Phosphate buffer pH 6
[10] = 100 mM phosphate buffer pH 7.0, ambient temperature, read-out: Solubility, Phosphate buffer pH 7
[11] = 100 mM phosphate buffer pH 7.5, ambient temperature, read-out: Solubility, Phosphate buffer pH 7.5

Row | SMILES | EC50 [1] [nM] | EC50 [2] [nM] | solubility [3, 5] [µg/mL] | solubility [3, 6] [µg/mL] | solubility [3, 7] [µg/mL] | solubility [3, 8] [µg/mL] | solubility [3, 9] [µg/mL] | solubility [3, 10] [µg/mL] | solubility [3, 11] [µg/mL] | Small intestinal wet weight [4] [g] | Fasting blood glucose [4] [mM]
1 | CC[C@H](C)[C@H](NC(=O)[C@H](Cc1ccccc1)NC(=O)[C@H](CC(=O)O)NC(=O)[C@H](CCCNC(=N)N)NC(=O)[C@H](C)NC(=O)[C@H](C)NC(=O)[C@H](CCC(N)=O)NC(=O)[C@H](CCC(=O)O)NC(=O)[C@H](CC(=O)O)NC(=O)[C@H](CC(C)C)NC(=O)[C@@H](NC(=O)[C@@H](NC(=O)[C@H](C)NC(=O)[C@H](CC(C)C)NC(=O)[C@H](CCC(=O)O)NC(=O)[C@H](CO)NC(=O)[C@@H](NC(=O)[C@H](Cc1ccccc1)NC(=O)[C@H](CO)NC(=O)CNC(=O)[C@H](CCC(=O)O)NC(=O)C(C)(C)NC(=O)[C@@H](N)Cc1c[nH]cn1)[C@@H](C)O)[C@@H](C)O)[C@@H](C)CC)C(=O)N[C@@H](C)C(=O)N[C@@H](Cc1c[nH]c2ccccc12)C(=O)N[C@@H](CC(C)C)C(=O)N[C@H](C(=O)N[C@@H](Cc1c[nH]cn1)C(=O)N[C@@H](Cc1c[nH]cn1)C(=O)N[C@@H](CCCCN)C(=O)N[C@H](C(=O)N[C@H](C(=O)N[C@@H](CC(=O)O)C(=O)O)[C@@H](C)O)[C@@H](C)CC)[C@@H](C)CC [Compound 6] (H-H[Aib]EGSFTSELATILDEQAARDFIAWLIHHKITD-OH) | 0.014 | 0.047 | ≥ 1000 | < 1000 | < 1000 | ≥ 1000 | < 1000 | ≥ 1000 | < 1000 |  | 
2 | CC[C@H](C)[C@H](NC(=O)[C@H](Cc1ccccc1)NC(=O)[C@H](CC(=O)O)NC(=O)[C@H](CCCNC(=N)N)NC(=O)[C@H](C)NC(=O)[C@H](C)NC(=O)[C@H](CCC(N)=O)NC(=O)[C@H](CCC(=O)O)NC(=O)[C@H](CC(=O)O)NC(=O)[C@H](CC(C)C)NC(=O)[C@@H](NC(=O)[C@@H](NC(=O)[C@H](C)NC(=O)[C@H](CC(C)C)NC(=O)[C@H](CCC(=O)O)NC(=O)[C@H](CO)NC(=O)[C@@H](NC(=O)[C@H](Cc1ccccc1)NC(=O)[C@H](CO)NC(=O)CNC(=O)[C@H](CCC(=O)O)NC(=O)C(C)(C)NC(=O)[C@@H](N)Cc1c[nH]cn1)[C@@H](C)O)[C@@H](C)O)[C@@H](C)CC)C(=O)N[C@@H](C)C(=O)N[C@@H](Cc1c[nH]c2ccccc12)C(=O)N[C@@H](CC(C)C)C(=O)N[C@H](C(=O)N[C@@H](Cc1ccc(O)cc1)C(=O)N[C@@H](Cc1c[nH]cn1)C(=O)N[C@@H](CCCCN)C(=O)N[C@H](C(=O)N[C@H](C(=O)N[C@@H](CC(=O)O)C(=O)O)[C@@H](C)O)[C@@H](C)CC)[C@@H](C)CC [Compound 7] (H-H[Aib]EGSFTSELATILDEQAARDFIAWLIYHKITD-OH) | 0.017 | 0.11 | ≥ 1000 | < 1000 | < 1000 | ≥ 1000 | < 1000 | ≥ 1000 | ≥ 1000 |  | 
3 | CC[C@H](C)[C@H](NC(=O)[C@H](Cc1ccccc1)NC(=O)[C@H](CC(=O)O)NC(=O)[C@H](CCCNC(=N)N)NC(=O)[C@H](C)NC(=O)[C@H](C)NC(=O)[C@H](CCC(N)=O)NC(=O)[C@H](CCC(=O)O)NC(=O)[C@H](CC(=O)O)NC(=O)[C@H](CC(C)C)NC(=O)[C@@H](NC(=O)[C@@H](NC(=O)[C@H](C)NC(=O)[C@H](CC(C)C)NC(=O)[C@H](CCC(=O)O)NC(=O)[C@H](CO)NC(=O)[C@@H](NC(=O)[C@H](Cc1ccccc1)NC(=O)[C@H](CO)NC(=O)CNC(=O)[C@H](CCC(=O)O)NC(=O)C(C)(C)NC(=O)[C@@H](N)Cc1c[nH]cn1)[C@@H](C)O)[C@@H](C)O)[C@@H](C)CC)C(=O)N[C@@H](C)C(=O)N[C@@H](Cc1c[nH]c2ccccc12)C(=O)N[C@@H](CC(C)C)C(=O)N[C@H](C(=O)N[C@@H](CC(C)C)C(=O)N[C@@H](Cc1c[nH]cn1)C(=O)N[C@@H](CCCCN)C(=O)N[C@H](C(=O)N[C@H](C(=O)N[C@@H](CC(=O)O)C(=O)O)[C@@H](C)O)[C@@H](C)CC)[C@@H](C)CC [Compound 8] (H-H[Aib]EGSFTSELATILDEQAARDFIAWLILHKITD-OH) | 0.021 | 0.084 | ≥ 1000 | < 1000 | < 1000 | ≥ 1000 | < 1000 | ≥ 1000 | ≥ 1000 |  | 
4 | CC[C@H](C)[C@H](NC(=O)[C@H](Cc1ccccc1)NC(=O)[C@H](CC(=O)O)NC(=O)[C@H](CCCNC(=N)N)NC(=O)[C@H](C)NC(=O)[C@H](C)NC(=O)[C@H](CCC(N)=O)NC(=O)[C@H](CCC(=O)O)NC(=O)[C@H](CC(=O)O)NC(=O)[C@H](CC(C)C)NC(=O)[C@@H](NC(=O)[C@@H](NC(=O)[C@H](C)NC(=O)[C@H](CC(C)C)NC(=O)[C@H](CCC(=O)O)NC(=O)[C@H](CO)NC(=O)[C@@H](NC(=O)[C@H](Cc1ccccc1)NC(=O)[C@H](CO)NC(=O)CNC(=O)[C@H](CCC(=O)O)NC(=O)C(C)(C)NC(=O)[C@@H](N)Cc1c[nH]cn1)[C@@H](C)O)[C@@H](C)O)[C@@H](C)CC)C(=O)N[C@@H](C)C(=O)N[C@@H](Cc1c[nH]c2ccccc12)C(=O)N[C@@H](CC(C)C)C(=O)N[C@@H](Cc1c[nH]cn1)C(=O)N[C@@H](C)C(=O)N[C@@H](Cc1c[nH]cn1)C(=O)N[C@@H](CCCCN)C(=O)N[C@H](C(=O)N[C@H](C(=O)N[C@@H](CC(=O)O)C(=O)O)[C@@H](C)O)[C@@H](C)CC [Compound 22] (H-H[Aib]EGSFTSELATILDEQAARDFIAWLHAHKITD-OH) | 0.28 | 0.042 |  |  |  |  |  |  |  | 0.82 | 6.18
5 | CC[C@H](C)[C@H](NC(=O)[C@H](Cc1ccccc1)NC(=O)[C@H](CC(=O)O)NC(=O)[C@H](CCCNC(=N)N)NC(=O)[C@H](C)NC(=O)[C@H](C)NC(=O)[C@H](CCC(N)=O)NC(=O)[C@H](CCC(=O)O)NC(=O)[C@H](CC(=O)O)NC(=O)[C@H](CC(C)C)NC(=O)[C@@H](NC(=O)[C@@H](NC(=O)[C@H](C)NC(=O)[C@H](CC(C)C)NC(=O)[C@H](CCC(=O)O)NC(=O)[C@H](CO)NC(=O)[C@@H](NC(=O)[C@H](Cc1ccccc1)NC(=O)[C@@H](NC(=O)CNC(=O)[C@H](CCC(=O)O)NC(=O)C(C)(C)NC(=O)[C@@H](N)Cc1c[nH]cn1)[C@@H](C)O)[C@@H](C)O)[C@@H](C)O)[C@@H](C)CC)C(=O)N[C@@H](C)C(=O)N[C@@H](Cc1c[nH]c2ccccc12)C(=O)N[C@@H](CC(C)C)C(=O)N[C@@H](CCC(N)=O)C(=O)N[C@@H](C)C(=O)N[C@@H](CCC(N)=O)C(=O)N[C@@H](CCCCN)C(=O)N[C@H](C(=O)N[C@H](C(=O)N[C@@H](CC(=O)O)C(=O)O)[C@@H](C)O)[C@@H](C)CC [Compound 26] (H-H[Aib]EGTFTSELATILDEQAARDFIAWLQAQKITD-OH) | 0.013 | 0.19 |  |  |  |  |  |  |  | 0.78 | 5.70
